# Assays:
# [1] = biological target: T1, Ephrin type-B receptor 1 (Homo sapiens) (UniProt P54762); assay: Induction of stabilization of recombinant EPHB1 (unknown origin) assessed as change in melting temperature by differential scanning fluorimetry assay
# T1 sequence (whole entry): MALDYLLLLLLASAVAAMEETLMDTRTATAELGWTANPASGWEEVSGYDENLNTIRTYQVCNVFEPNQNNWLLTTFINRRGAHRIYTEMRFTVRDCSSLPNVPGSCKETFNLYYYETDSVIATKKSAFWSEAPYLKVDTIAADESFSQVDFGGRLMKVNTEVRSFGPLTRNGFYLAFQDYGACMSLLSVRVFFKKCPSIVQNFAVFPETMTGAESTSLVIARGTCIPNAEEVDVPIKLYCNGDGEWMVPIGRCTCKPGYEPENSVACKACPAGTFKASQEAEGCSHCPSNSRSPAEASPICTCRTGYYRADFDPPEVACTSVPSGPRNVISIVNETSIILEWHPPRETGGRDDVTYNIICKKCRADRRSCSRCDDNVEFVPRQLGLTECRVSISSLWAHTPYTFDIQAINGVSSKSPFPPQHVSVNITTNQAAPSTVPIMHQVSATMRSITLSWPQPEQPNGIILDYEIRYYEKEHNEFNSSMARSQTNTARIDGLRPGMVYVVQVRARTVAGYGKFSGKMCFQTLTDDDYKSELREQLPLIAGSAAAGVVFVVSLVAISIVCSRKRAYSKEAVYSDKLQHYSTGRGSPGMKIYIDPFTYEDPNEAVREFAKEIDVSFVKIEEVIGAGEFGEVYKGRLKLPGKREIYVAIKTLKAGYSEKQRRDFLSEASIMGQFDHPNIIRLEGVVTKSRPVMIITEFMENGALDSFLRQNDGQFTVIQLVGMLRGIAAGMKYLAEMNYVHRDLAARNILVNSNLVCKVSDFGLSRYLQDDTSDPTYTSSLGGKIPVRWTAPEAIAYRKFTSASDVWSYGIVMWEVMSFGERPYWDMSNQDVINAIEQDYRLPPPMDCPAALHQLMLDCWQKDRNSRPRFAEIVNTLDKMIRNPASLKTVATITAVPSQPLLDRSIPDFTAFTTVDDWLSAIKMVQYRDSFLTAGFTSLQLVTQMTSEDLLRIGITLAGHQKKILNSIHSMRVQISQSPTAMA
# [2] = biological target: Fibroblast growth factor receptor 2 (Homo sapiens) (UniProt P21802)
# Description: Induction of stabilization of recombinant FGFR2 (unknown origin) assessed as change in melting temperature by differential scanning fluorimetry assay
# [3] = biological target: Ephrin type-A receptor 7 (Homo sapiens) (UniProt Q15375); assay: Induction of stabilization of recombinant EPHA7 (unknown origin) assessed as change in melting temperature by differential scanning fluorimetry assay
# Chain of Ephrin type-A receptor 7 (Homo sapiens) (Q15375 28-998 limits assumed): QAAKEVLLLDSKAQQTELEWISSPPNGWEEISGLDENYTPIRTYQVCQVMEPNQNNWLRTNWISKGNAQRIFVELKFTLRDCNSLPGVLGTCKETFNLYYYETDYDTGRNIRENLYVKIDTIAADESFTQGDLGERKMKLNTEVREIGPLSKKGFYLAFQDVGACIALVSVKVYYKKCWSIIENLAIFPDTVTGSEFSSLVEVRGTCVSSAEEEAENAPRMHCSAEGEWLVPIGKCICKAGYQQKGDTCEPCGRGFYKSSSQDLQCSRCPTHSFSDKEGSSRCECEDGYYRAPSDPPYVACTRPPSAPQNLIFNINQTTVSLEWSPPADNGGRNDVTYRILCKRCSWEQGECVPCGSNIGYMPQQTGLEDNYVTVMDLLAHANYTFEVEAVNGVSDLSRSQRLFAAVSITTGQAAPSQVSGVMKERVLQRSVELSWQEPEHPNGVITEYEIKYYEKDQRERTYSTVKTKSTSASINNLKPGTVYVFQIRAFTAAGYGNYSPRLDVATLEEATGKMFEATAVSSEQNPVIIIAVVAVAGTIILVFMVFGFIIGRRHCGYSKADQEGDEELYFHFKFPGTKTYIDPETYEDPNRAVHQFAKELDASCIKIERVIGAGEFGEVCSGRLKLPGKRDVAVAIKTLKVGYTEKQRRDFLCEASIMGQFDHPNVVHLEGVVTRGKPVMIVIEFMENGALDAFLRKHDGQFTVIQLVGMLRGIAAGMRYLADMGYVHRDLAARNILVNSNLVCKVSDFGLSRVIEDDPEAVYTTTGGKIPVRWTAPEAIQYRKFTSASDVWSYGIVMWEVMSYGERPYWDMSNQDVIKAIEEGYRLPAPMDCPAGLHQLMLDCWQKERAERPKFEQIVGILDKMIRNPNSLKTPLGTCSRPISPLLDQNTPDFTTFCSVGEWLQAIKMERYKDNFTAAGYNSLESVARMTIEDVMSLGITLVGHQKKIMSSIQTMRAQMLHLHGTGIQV
# [4] = biological target: Fibroblast growth factor receptor 1 (Homo sapiens, UniProt P11362)
# Chain of Fibroblast growth factor receptor 1 (P11362 22-822 limits assumed): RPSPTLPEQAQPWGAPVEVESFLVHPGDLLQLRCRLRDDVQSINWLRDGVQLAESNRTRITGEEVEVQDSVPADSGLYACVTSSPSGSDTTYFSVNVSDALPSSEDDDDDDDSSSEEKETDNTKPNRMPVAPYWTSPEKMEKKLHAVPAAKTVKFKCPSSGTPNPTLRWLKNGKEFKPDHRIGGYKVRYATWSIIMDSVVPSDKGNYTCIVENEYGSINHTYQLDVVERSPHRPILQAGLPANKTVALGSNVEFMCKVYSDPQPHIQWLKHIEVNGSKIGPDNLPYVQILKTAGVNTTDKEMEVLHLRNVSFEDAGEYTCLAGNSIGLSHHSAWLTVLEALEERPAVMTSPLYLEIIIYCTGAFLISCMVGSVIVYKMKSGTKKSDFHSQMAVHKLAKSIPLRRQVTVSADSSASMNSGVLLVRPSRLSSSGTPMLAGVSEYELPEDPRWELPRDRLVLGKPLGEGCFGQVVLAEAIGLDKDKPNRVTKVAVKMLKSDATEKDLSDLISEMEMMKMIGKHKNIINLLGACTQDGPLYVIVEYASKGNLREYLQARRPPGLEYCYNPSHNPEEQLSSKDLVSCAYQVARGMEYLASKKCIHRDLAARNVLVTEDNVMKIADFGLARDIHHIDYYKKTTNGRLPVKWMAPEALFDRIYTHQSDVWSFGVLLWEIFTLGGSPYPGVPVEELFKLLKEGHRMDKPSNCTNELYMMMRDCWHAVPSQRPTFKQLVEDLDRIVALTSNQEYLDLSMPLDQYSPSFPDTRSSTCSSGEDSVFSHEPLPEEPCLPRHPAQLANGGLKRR
# Description: Induction of stabilization of recombinant FGFR1 (unknown origin) assessed as change in melting temperature by differential scanning fluorimetry assay
# [5] = biological target: Vascular endothelial growth factor receptor 1 (Homo sapiens, UniProt P17948); assay: Induction of stabilization of recombinant FLT1 (unknown origin) assessed as change in melting temperature by differential scanning fluorimetry assay
# [6] = biological target: Ephrin type-A receptor 5 (Homo sapiens) (UniProt P54756)
# Chain of Ephrin type-A receptor 5 (Homo sapiens) (P54756 whole entry): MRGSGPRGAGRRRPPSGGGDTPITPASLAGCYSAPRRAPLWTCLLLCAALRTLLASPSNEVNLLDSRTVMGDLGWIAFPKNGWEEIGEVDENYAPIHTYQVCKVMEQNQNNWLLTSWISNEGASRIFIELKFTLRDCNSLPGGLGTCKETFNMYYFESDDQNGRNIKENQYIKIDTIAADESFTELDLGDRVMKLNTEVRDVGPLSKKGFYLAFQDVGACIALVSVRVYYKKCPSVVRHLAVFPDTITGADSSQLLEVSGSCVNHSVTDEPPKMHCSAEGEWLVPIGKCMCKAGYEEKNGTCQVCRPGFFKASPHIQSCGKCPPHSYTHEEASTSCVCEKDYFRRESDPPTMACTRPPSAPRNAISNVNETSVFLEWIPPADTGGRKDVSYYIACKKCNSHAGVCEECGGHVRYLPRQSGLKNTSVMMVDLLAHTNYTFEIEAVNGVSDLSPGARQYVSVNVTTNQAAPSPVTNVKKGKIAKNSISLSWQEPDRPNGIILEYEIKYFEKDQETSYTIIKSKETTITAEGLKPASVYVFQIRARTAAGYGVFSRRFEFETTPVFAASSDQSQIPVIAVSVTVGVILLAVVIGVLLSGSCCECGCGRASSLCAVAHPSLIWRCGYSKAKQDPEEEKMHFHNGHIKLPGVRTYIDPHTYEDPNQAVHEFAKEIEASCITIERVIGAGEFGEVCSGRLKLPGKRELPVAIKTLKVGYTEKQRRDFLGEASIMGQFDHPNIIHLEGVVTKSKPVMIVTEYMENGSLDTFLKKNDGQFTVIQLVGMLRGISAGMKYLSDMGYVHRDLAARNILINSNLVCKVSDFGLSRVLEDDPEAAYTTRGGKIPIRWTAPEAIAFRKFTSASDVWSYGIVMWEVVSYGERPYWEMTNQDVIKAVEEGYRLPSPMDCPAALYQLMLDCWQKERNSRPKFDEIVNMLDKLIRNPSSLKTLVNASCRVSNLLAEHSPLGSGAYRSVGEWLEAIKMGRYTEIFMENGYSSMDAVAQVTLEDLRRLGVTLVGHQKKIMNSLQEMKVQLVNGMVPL
# Description: Induction of stabilization of recombinant EPHA5 (unknown origin) assessed as change in melting temperature by differential scanning fluorimetry assay
# Ephrin type-A receptor 4 = Ephrin type-A receptor 4 (Homo sapiens, UniProt P54764); assay: Induction of stabilization of recombinant EPHA4 (unknown origin) assessed as change in melting temperature by differential scanning fluorimetry assay
# Chain of Ephrin type-A receptor 4 (P54764 whole entry): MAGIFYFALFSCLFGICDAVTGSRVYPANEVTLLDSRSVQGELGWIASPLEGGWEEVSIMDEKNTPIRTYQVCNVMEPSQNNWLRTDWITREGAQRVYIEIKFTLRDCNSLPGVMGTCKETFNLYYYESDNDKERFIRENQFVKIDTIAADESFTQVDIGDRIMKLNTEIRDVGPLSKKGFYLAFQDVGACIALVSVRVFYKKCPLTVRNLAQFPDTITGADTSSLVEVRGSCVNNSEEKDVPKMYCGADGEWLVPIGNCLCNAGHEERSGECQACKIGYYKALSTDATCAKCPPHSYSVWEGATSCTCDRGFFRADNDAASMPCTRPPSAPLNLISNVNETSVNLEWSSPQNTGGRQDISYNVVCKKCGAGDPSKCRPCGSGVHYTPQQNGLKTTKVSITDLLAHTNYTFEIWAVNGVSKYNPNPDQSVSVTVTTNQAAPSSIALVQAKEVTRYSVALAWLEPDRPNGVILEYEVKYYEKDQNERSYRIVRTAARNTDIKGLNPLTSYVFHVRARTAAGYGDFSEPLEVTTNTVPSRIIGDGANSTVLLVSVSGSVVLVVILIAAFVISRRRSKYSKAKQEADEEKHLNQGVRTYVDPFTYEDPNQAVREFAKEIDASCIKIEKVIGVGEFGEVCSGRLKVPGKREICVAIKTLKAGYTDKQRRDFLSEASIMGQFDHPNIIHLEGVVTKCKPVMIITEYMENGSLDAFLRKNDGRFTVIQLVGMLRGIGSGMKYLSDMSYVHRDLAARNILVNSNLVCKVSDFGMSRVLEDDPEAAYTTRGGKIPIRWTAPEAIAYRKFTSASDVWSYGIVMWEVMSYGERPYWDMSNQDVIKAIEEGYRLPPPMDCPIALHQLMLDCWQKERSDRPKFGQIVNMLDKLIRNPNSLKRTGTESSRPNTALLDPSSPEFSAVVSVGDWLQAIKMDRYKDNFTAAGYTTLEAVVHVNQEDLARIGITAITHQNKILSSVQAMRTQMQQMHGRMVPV
# Ephrin type-A receptor 2 = Ephrin type-A receptor 2 (Homo sapiens, UniProt P29317)
# Chain of Ephrin type-A receptor 2 (P29317 whole entry): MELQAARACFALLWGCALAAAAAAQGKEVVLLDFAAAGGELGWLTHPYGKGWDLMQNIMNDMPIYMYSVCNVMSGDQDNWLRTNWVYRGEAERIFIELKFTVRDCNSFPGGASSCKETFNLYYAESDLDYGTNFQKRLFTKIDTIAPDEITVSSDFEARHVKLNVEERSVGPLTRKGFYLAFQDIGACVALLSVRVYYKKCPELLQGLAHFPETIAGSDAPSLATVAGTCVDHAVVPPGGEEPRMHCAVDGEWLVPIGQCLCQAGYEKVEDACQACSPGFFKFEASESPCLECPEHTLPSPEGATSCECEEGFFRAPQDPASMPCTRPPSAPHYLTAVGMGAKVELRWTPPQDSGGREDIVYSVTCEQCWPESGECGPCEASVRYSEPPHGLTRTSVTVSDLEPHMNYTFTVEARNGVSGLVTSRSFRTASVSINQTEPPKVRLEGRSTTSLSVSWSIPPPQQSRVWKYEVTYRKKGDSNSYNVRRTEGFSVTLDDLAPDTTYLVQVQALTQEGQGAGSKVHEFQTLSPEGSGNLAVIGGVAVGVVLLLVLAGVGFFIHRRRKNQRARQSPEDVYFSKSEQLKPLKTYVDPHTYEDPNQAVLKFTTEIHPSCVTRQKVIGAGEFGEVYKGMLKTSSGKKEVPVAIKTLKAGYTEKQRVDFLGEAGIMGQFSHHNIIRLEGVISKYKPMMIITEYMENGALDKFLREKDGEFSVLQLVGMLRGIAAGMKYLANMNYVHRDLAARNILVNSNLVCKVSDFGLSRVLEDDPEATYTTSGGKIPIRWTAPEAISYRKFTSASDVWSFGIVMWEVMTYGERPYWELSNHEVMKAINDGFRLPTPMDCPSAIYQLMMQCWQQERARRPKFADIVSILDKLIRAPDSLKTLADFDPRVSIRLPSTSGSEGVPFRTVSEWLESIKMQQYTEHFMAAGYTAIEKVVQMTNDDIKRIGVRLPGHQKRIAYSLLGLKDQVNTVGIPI
# Description: Induction of stabilization of recombinant EPHA2 (D596 to G900 residues) (unknown origin) expressed in Escherichia coli rosetta BL21(D3)-R3-pRARE2 competent cells assessed as change in melting temperature by differential scanning fluorimetry assay
# [7] = biological target: T2, Ephrin type-B receptor 3 (Homo sapiens) (UniProt P54753); assay: Induction of stabilization of recombinant EPHB3 (unknown origin) assessed as change in melting temperature by differential scanning fluorimetry assay
# T2 sequence (whole entry): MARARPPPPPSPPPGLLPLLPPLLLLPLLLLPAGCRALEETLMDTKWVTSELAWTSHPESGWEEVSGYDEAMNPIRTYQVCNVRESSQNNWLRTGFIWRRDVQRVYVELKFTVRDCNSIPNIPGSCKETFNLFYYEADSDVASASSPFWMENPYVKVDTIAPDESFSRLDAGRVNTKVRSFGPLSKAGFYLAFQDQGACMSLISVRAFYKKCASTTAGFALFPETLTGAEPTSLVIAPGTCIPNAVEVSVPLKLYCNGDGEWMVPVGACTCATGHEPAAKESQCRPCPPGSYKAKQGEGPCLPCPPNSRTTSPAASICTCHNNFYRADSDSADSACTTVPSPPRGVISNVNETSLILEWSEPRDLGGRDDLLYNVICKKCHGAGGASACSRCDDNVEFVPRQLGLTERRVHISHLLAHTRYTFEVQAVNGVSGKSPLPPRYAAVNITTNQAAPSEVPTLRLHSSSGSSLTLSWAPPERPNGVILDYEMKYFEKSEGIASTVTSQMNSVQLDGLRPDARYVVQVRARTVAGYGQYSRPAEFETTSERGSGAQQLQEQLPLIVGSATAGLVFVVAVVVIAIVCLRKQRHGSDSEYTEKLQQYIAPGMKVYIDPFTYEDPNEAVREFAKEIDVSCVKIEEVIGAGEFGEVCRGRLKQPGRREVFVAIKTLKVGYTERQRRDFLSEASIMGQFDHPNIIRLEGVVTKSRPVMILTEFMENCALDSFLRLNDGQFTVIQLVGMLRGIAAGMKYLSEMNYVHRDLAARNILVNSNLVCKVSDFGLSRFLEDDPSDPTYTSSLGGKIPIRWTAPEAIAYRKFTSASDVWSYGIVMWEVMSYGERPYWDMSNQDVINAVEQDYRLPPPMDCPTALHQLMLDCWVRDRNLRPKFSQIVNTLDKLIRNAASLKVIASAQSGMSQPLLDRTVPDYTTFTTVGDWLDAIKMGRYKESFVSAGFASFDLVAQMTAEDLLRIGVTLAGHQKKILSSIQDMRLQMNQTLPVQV
# [8] = biological target: T3, Cyclin-G-associated kinase (Homo sapiens) (UniProt O14976)
# T3 sequence (whole entry): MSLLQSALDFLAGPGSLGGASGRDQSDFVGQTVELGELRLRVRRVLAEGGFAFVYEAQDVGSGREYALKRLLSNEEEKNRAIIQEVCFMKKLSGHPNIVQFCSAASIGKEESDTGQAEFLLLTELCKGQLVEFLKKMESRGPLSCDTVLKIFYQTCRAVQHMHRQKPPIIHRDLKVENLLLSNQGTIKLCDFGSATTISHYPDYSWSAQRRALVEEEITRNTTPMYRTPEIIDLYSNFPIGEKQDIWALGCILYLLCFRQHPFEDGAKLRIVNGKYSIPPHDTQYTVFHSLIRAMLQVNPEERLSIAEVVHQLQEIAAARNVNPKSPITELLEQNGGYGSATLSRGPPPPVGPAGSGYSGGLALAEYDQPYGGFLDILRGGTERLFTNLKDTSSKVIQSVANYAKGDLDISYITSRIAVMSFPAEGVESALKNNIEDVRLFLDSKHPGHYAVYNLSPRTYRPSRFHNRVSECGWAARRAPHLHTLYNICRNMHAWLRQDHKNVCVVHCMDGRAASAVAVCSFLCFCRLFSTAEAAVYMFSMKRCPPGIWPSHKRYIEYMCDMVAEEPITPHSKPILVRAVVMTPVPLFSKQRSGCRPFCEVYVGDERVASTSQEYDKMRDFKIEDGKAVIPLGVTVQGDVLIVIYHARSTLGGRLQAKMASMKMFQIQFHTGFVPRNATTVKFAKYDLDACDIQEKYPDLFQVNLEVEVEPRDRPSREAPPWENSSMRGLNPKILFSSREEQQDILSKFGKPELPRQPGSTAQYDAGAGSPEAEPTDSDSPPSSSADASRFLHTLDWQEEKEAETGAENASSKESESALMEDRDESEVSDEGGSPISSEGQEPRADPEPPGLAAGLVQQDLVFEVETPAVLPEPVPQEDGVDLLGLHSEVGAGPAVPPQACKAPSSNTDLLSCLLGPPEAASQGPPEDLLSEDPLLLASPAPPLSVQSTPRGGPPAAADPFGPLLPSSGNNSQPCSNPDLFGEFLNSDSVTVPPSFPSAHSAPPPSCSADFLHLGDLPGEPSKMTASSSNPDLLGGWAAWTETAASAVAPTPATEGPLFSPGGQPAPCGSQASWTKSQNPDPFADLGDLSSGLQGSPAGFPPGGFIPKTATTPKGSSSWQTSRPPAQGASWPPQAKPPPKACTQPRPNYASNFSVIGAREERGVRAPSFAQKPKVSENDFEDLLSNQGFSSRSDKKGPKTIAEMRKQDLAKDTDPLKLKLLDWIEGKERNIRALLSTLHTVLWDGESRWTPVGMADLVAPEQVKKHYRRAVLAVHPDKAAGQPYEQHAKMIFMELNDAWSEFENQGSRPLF
# Description: Induction of stabilization of recombinant GAK (unknown origin) assessed as change in melting temperature by differential scanning fluorimetry assay
deltaTm [1] [K],deltaTm [2] [K],deltaTm [3] [K],deltaTm [4] [K],deltaTm [5] [K],deltaTm [6] [K],deltaTm (Ephrin type-A receptor 4) [K],deltaTm (Ephrin type-A receptor 2) [K],deltaTm [7] [K],deltaTm [8] [K],SMILES
3.1,5.3,1.8,4,6,4.6,3.4,7,3.7,5.3,O=S1(=O)NCCCNc2nc(ncc2-c2cccc(Cl)c2F)Nc2cccc1c2
,,,,,,,6.7,,4.9,O=S1(=O)NCCCNc2nc(ncc2Br)Nc2cccc1c2
0.9,5.8,1.4,4.9,5.3,1.3,0.8,1.8,1.1,3.3,COc1cc(-c2cnc3nc2NCCCNS(=O)(=O)c2cccc(c2)N3)cc(C(F)(F)F)c1
3.6,4.6,0.2,2.2,4.9,4.6,4.4,7.7,1.7,6,Nc1cc(-c2cnc3nc2NCCCNS(=O)(=O)c2cccc(c2)N3)ccc1F
2.5,3.6,1.6,1.9,2.4,5,5.1,6.3,1.6,8.1,COc1cc(-c2cnc3nc2NCCCNS(=O)(=O)c2cc(ccc2Cl)N3)ccc1F
0.9,3.8,2.1,3.3,5.2,4.9,4.1,7.7,4.7,7.1,COc1cc(-c2cnc3nc2NCCCNS(=O)(=O)c2cccc(c2)N3)ccc1Cl
2.2,1.2,-0.3,0.8,0.7,2.9,2.2,6,2.4,5.9,COc1cc(-c2cnc3nc2NCCCNS(=O)(=O)c2cccc(c2)N3)cc(OC)c1OC
0.6,2.1,0.9,1.3,1.8,1.6,0.7,3,0.6,3.1,O=S1(=O)NCCCNc2nc(ncc2-c2ccc(F)c(C(F)(F)F)c2)Nc2cccc1c2

# The next lines start with the molecule.
SMILES,deltaTm [1] [K],deltaTm [2] [K],deltaTm [3] [K],deltaTm [4] [K],deltaTm [5] [K],deltaTm [6] [K],deltaTm (Ephrin type-A receptor 4) [K],deltaTm (Ephrin type-A receptor 2) [K],deltaTm [7] [K],deltaTm [8] [K]
O=S1(=O)NCCCNc2nc(ncc2-c2ccc(F)c(O)c2)Nc2cccc1c2,4,6.5,-2,4.9,10.7,4.1,2.9,7.8,3,6.4
CSc1cc(-c2cnc3nc2NCCCNS(=O)(=O)c2cccc(c2)N3)ccc1F,3,4.1,2,3.3,4.7,4.3,3.4,6.9,4.3,7.8
COc1cc(-c2cnc3nc2NCCCNS(=O)(=O)c2cc(ccc2OCC(N)=O)N3)ccc1F,1.5,1.5,0.7,0.7,0.8,3.9,2.3,3.5,2.5,6.3
O=S1(=O)NCCCNc2nc(ncc2-c2ccc(F)c(Cl)c2)Nc2cccc1c2,5.3,5.5,-1.5,3.8,7.5,5.7,4.6,9.2,4.3,6.3
COc1ccc(-c2cnc3nc2NCCCNS(=O)(=O)c2cccc(c2)N3)cc1OC,0.6,3.3,0.8,2.3,4.1,2.1,1.4,4.6,1.4,6.1
CN[C@@H]1C[C@H]2O[C@@](C)([C@@H]1OC)n1c3ccccc3c3c4c(c5c6ccccc6n2c5c31)C(=O)NC4,6.4,,,,10.2,,6.2,6.4,6.1,

# — ChEMBL document CHEMBL5550200, “Back-Pocket Optimization of 2-Aminopyrimidine-Based Macrocycles Leads to Potent EPHA2/GAK Kinase Inhibitors” (J Med Chem, 2024)
